Results on 19 molecules are retold here after patent US8017612B2, “Piperazine compound and use thereof as a HCV polymerase inhibitor” (priority 2006, dated 2011).

For orientation: pIC50 means the negative decadic logarithm of the IC50, by convention in mol/L.

Assay [1] addresses T1, HCV polymerase (NS5B) type 1b (Hepatitis C virus genotype 1b, UniProt P26663).
T1 construct: a region encoding NS5B (J Virol 1991 March, 65(3), 1105-13, 544 amino acids after deletion of 47 amino acids on the C-terminal); 6xHis (C); made in house; host or cells: Escherichia coli
The assay can be described thus: Assay of enzyme (HCV polymerase) inhibitory activity, type 1b enzyme. Particulars: HCV polymerase inhibitory activity (IC50), 1b, type 1b enzyme 0.5 μg/ml, 25° C., 60 min. In kind it is biochemical, HCV BK strain (type 1b). The method, boiled down: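 His-tagged, C-terminally truncated NS5B (BK strain, 1b; 0.5 μg/ml) incubated with compound 60 min at 25 °C on 3′UTR-derived substrate RNA (5 μg/ml), 50 μM ATP/GTP/CTP, 2 μM UTP plus [3H]UTP, pH 7.5. Acid-precipitated RNA counted; IC50 from radioactivity with and without compound.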

In assay [2] the target is T2, HCV polymerase (NS5B) type 1a (Hepatitis C virus genotype 1a, UniProt P26664).
T2 construct: made in house; host or cells: Escherichia coli (by the 'similar method' of the 1b enzyme)
In words: Assay of enzyme (HCV polymerase) inhibitory activity, type 1a enzyme. Particulars: HCV polymerase inhibitory activity (IC50), 1a, type 1a enzyme 1.5 μg/ml, 25° C., 60 min. In kind it is biochemical, HCV type 1a (cloned from the blood of patients). The method, boiled down:
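His-tagged NS5B, C-terminal 47 residues deleted, type 1a at 1.5 μg/ml, with 5 μg/ml HCV 3′UTR substrate RNA, 50 μM ATP/GTP/CTP, 2 μM UTP plus [3H]UTP, pH 7.5 Tris, 5 mM MgCl2; 60 min at 25° C. TCA-precipitated RNA counted by scintillation; IC50 from radioactivity with vs. without compound.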

SMILES strings stand for the structures. pIC50: −log10 of the molar value. Structures can show the parent of a compound that is named as a salt.

As for `CC(C)c1ccc(S(=O)(=O)N2CCN(c3nc4c(s3)Cc3ccccc3-4)CC2C(=O)NCc2ccc(C(F)(F)F)cc2)cc1` (centres unmarked) [Example 155, 4-(8H-indeno[1,2-d]thiazol-2-yl)-1-(4-isopropyl-benzenesulfonyl)-piperazine-2-carboxylic acid 4-trifluoromethyl-benzylamide], the pIC50 in assay [1] and in assay [2] was less than 6.00 throughout.
In the case of `CC(C)c1ccc(S(=O)(=O)N2CCN(c3nc4c(s3)CCCC4)CC2C(=O)NCc2ccc(C(F)(F)F)cc2)cc1` (centres unmarked) [Example 156, 1-(4-isopropyl-benzenesulfonyl)-4-(4,5,6,7-tetrahydro-benzothiazol-2-yl)-piperazine-2-carboxylic acid 4-trifluoromethyl-benzylamide], the pIC50 in assay [1] and in assay [2] was less than 6.00 each time.
As for `CN(C)c1ccc(CNC(=O)[C@H]2CN(C(=O)CN)CCN2S(=O)(=O)c2ccc(I)cc2)cc1` [Example 157, (R)-4-(2-amino-acetyl)-1-(4-iodo-benzenesulfonyl)-piperazine-2-carboxylic acid 4-dimethylamino-benzylamide hydrochloride], the pIC50 in assay [1] and in assay [2] was less than 6.00 throughout.
Take `CN(C)c1ccc(CNC(=O)[C@H]2CN(C(=O)CN3CCCCC3)CCN2S(=O)(=O)c2ccc(I)cc2)cc1` [Example 158, (R)-1-(4-iodo-benzenesulfonyl)-4-(2-piperidin-1-yl-acetyl)-piperazine-2-carboxylic acid 4-dimethylamino-benzylamide]: the pIC50 in assay [1] and in assay [2] was less than 6.00 each time.
As for `CN(C)c1ccc(CNC(=O)[C@H]2CN(C(=O)CN3CCCC3)CCN2S(=O)(=O)c2ccc(I)cc2)cc1` [Example 159, (R)-1-(4-iodo-benzenesulfonyl)-4-(2-pyrrolidin-1-yl-acetyl)-piperazine-2-carboxylic acid 4-dimethylamino-benzylamide], the pIC50 in assay [1] and in assay [2] was less than 6.00 in each case.
With `CN(C)c1ccc(CNC(=O)[C@H]2CN(C(=O)CN3CCOCC3)CCN2S(=O)(=O)c2ccc(I)cc2)cc1` [Example 160, (R)-1-(4-iodo-benzenesulfonyl)-4-(2-morpholin-4-yl-acetyl)-piperazine-2-carboxylic acid 4-dimethylamino-benzylamide], the pIC50 in assay [1] and in assay [2] was 6.00 to 7.00 throughout.
As to `CC(=O)N1CCN(S(=O)(=O)c2ccc(Cl)cc2Cl)C(C(=O)NCc2ccc(C(F)(F)F)cc2)C1` (centres unmarked) [Example 161, 4-acetyl-1-(2,4-dichloro-benzenesulfonyl)-piperazine-2-carboxylic acid 4-trifluoromethyl-benzylamide], the pIC50 in assay [1] and in assay [2] was less than 6.00 each time.
As to `CCC(CC)c1ccc(S(=O)(=O)N2CCN(C(C)=O)CC2C(=O)NCc2ccc(C(F)(F)F)cc2)cc1` (centres unmarked) [Example 162, 4-acetyl-1-[4-(1-ethyl-propyl)-benzenesulfonyl]-piperazine-2-carboxylic acid 4-trifluoromethyl-benzylamide], the pIC50 in assay [1] and in assay [2] was less than 6.00 each time.
In the case of `CCC(CC)c1ccc(CNC(=O)C2CN(C(C)=O)CCN2S(=O)(=O)c2ccc(C(C)C)cc2)cc1` (centres unmarked) [Example 163, 4-acetyl-1-(4-isopropyl-benzenesulfonyl)-piperazine-2-carboxylic acid 4-(1-ethyl-propyl)-benzylamide], the pIC50 in assay [1] and in assay [2] was 6.00 to 7.00 in each case.
Regarding `CC(=O)N1CCN(S(=O)(=O)c2ccc3ccccc3c2)C(C(=O)NCc2ccc(C(F)(F)F)cc2)C1` (centres unmarked) [Example 164, 4-acetyl-1-(naphthalene-2-sulfonyl)-piperazine-2-carboxylic acid 4-trifluoromethyl-benzylamide], the pIC50 in assay [1] and in assay [2] was less than 6.00 in each case.
Turning to `CC(=O)N1CCN(S(=O)(=O)c2cccc(Br)c2)C(C(=O)NCc2ccc(C(F)(F)F)cc2)C1` (centres unmarked) [Example 165, 4-acetyl-1-(3-bromo-benzenesulfonyl)-piperazine-2-carboxylic acid 4-trifluoromethyl-benzylamide], the pIC50 in assay [1] and in assay [2] was less than 6.00 throughout.
As to `COC(=O)CCc1ccc(S(=O)(=O)N2CCN(C(C)=O)CC2C(=O)NCc2ccc(C(F)(F)F)cc2)cc1` (centres unmarked) [Example 166, 3-{4-[4-acetyl-2-(4-trifluoromethyl-benzylcarbamoyl)-piperazine-1-sulfonyl]-phenyl}-propionic acid methyl ester], the pIC50 in assay [1] and in assay [2] was less than 6.00 each time.
Take `CC(=O)N1CCN(S(=O)(=O)c2ccc(C3CCCCC3)cc2)C(C(=O)NCc2ccc(C(F)(F)F)cc2)C1` (centres unmarked) [Example 167, 4-acetyl-1-(4-cyclohexyl-benzenesulfonyl)-piperazine-2-carboxylic acid 4-trifluoromethyl-benzylamide]: the pIC50 in assay [1] and in assay [2] was less than 6.00 in each case.
As to `CC(=O)N1CCN(S(=O)(=O)c2cccc(C(=O)O)c2)C(C(=O)NCc2ccc(C(F)(F)F)cc2)C1` (centres unmarked) [Example 168, 3-[4-acetyl-2-(4-trifluoromethyl-benzylcarbamoyl)-piperazine-1-sulfonyl]-benzoic acid], the pIC50 in assay [1] and in assay [2] was less than 6.00 each time.
Regarding `CC(=O)N1CCN(S(=O)(=O)c2ccc(C(C)C)cc2)[C@@H](C(=O)NCc2ccc(C(C)(C)CO)cc2)C1` [Example 169, (R)-4-acetyl-1-(4-isopropyl-benzenesulfonyl)-piperazine-2-carboxylic acid 4-(2-hydroxy-1,1-dimethyl-ethyl)-benzylamide], the pIC50 in assay [1] and in assay [2] was less than 6.00 in each case.
For the molecule `CCOC(=O)c1csc(N2CCN(S(=O)(=O)c3ccc(C(C)C)cc3)C(C(=O)NCc3ccc(C(F)(F)F)cc3)C2)n1` (centres unmarked) [Example 170, 2-[4-(4-isopropyl-benzenesulfonyl)-3-(4-trifluoromethyl-benzylcarbamoyl)-piperazin-1-yl]-thiazole-4-carboxylic acid ethyl ester], the pIC50 in assay [1] and in assay [2] was less than 6.00 throughout.
Consider `CC(C)c1ccc(S(=O)(=O)N2CCN(c3nc(C(=O)O)cs3)CC2C(=O)NCc2ccc(C(F)(F)F)cc2)cc1` (centres unmarked) [Example 171, 2-[4-(4-isopropyl-benzenesulfonyl)-3-(4-trifluoromethyl-benzylcarbamoyl)-piperazin-1-yl]-thiazole-4-carboxylic acid], for which the pIC50 in assay [1] and in assay [2] was less than 6.00 in each case.
Consider `CC(C)c1ccc(CNC(=O)[C@H]2CN(C(=O)Cc3ccccc3)CCN2S(=O)(=O)c2ccc(C(F)(F)F)cc2)cc1` [Example 172, (R)-4-phenylacetyl-1-(4-trifluoromethyl-benzenesulfonyl)-piperazine-2-carboxylic acid 4-isopropyl-benzylamide], for which the pIC50 in assay [1] was 6.00 to 7.00; in assay [2], less than 6.00.
In the case of `COC(=O)CCC(=O)N1CCN(S(=O)(=O)c2ccc(C(F)(F)F)cc2)[C@@H](C(=O)NCc2ccc(C(C)C)cc2)C1` [Example 173, 4-[(R)-3-(4-isopropyl-benzylcarbamoyl)-4-(4-trifluoromethyl-benzenesulfonyl)-piperazin-1-yl]-4-oxo-butyric acid methyl ester], the pIC50 in assay [1] and in assay [2] was 6.00 to 7.00 throughout.
